Test results reported in patent US20100204237A1, “Hydroxypyrimidinone derivatives having inhibitory activity against HIV integrase” (priority 2003, published 2010).
≈ marks a conversion by molar mass, not a printed value.

Assays:
HIV (HTLV-IIIB strain) = assay: inhibitory activities against HIV cell proliferation, MT-4 cells, MTT (Experimental Example 2); assay type: cell-based; conditions: Human immunodeficiency virus 1, IIIB, MT4, 96 h, concentration at which 50% of cytopathy caused by viruses was inhibited, 4 days, read-out: Experimental example 2 (EC50, ng/ml)
Experimental: The inhibitory activities against HIV cell proliferation were determined by the assay method described below. • (1) HIV (HTLV-IIIB strain) persistence infection human T-cell strain Molt-4 clone 8 was cultured on RPMI-1640 medium supplemented with 10% fetal bovine serum, and the supernatant was measured for viral titer after filtration, and stored at −80° C. On the other hand, each anti-HIV active agent was diluted in the above culture medium to a predetermined concentration, and each well of a 96-well microplate was added with 50 μl of the resultant active agent solution. Then, 100 μl (3.5×10^4 cells) each of MT-4 cell suspension was poured into each well, followed by each 50 μl (60 pfu (plaque forming unit)) of the HIV-containing supernatant diluted with the above culture medium. • (2) After incubating for 4 days in a carbon dioxide incubator at 37° C., every well was added with 30 μl of 3-(4,5-dimethylthiazole-2-yl)-2,5-diphenyltetrazolium bromide (MTT) 5 mg/ml), PBS, and incubated for another 1 hour. At this time, since living cells reduce MTT to cause precipitation of formazane, 150 μl of cell supernatant was removed from each well, and instead 150 μl of lysis solution (isopropanol supplemented with 10% Triton X-100 and 0.4% (v/v) HCl) was added, to make formazane eluate by shaking with a plate mixer. […] The concentration of Compound at which 50% of cytopathy caused by viruses was inhibited was defined as EC50.

HIV integrase = HIV integrase (Human immunodeficiency virus type 1 group M subtype B, UniProt P04585); assay: inhibitory activities against integrase (Experimental Example 1); assay type: biochemical; conditions: integrase inhibition, OD405 nm plate assay; read-out: Experimental example 1 (IC50, ng/ml) (converted)
Experimental: The inhibitory activities against integrase were determined by the assay described below.
A substrate DNA, solution (2 pmol/μl) and a target DNA solution (5 pmol/μl) were prepared in the manner as described in Experimental example 1 of WO 2004/024693. Before using the DNA solutions, complementary chains were annealed by slowly cooling after boiling. Substrate DNA and target DNA had sequences as described in that Experimental example.
Streptavidin, obtained from Vector Laboratories, was dissolved in 0.1 M carbonate buffer (composition: 90 mM Na2CO3, 10 mM NaHCO3) at concentration of 40 μg/ml. After coating each well of immunoplates (obtained from NUNC) with 50 μl of the above solution at 4° C. over night, each well was washed twice with PBS (composition: 13.7 mM NaCl, 0.27 mM KCl, 0.43 mM Na2HPO4, 0.14 mM KH2PO4) and blocked with 300 μl of 1% skim milk in PBS for 30 min. Additionally, each well was washed twice with PBS and added 50 μl of substrate DNA solution (2 pmol/μl). The immunoplates were kept at room temperature for 30 min while shaking. Then, each well was washed twice with PBS and once with H2O.
Subsequently, in the each well prepared above were added 51 μl of the reaction solution prepared from 12 μl of the buffer (composition: 150 mM MOPS (pH 7.2), 75 mM MnCl2, 50 mM 2-mercaptoethanol, 25% glycerol, 500 μg/ml bovine serum albumin-fraction V), and 39 μl of the distilled water. Then 9 μl of an integrase solution (30 pmol) was added and mixed well. In the well of negative control (NC) was added 9 μl of the integrase dilution buffer (composition: 20 mM MOPS (pH7.2), 400 mM potassium glutamate, 1 mM EDTA, 0.1% NP-40, 20% glycerol, 1 mM DTT, 4M urea), and mixed well using a plate mixer.
The plates were incubated at 30° C. for 60 minutes. The reaction solution was removed and washed three times with 250 μl of washing buffer (composition: 150 mM MOPS (pH7.2), 50 mM 2-mercaptoethanol, 25% glycerol, 500 μg/ml bovine serum albumin-fraction V).
Then each well was added with 53 μl of reaction solution prepared from 12 μl of buffer (composition: 150 mM MOPS (pH7.2), 75 mM MgCl2, 50 mM 2-mercaptoethanol, 25% glycerol, 500 μg/ml bovine serum albumin-fraction V) and 41 μl of distilled water. Further, each well was added with 6 μl of DMSO solution of a compound to be tested, and the well of positive control (PC) was added with 6 μl of DMSO, and mixed well by a plate mixer. After incubating the plate for 30 minutes at 30° C., was added 1 μl of target DNA (5 pmol/μl), and mixed well by a plate mixer.
After incubation for 10 minutes at 30° C., each plate was washed twice with PBS after removal of the reaction solution. […] The optical density at 405 nm (OD405 nm) of each well was measured and the inhibition rate (IC50) was determined by the following expression. […]

Row | SMILES | EC50 (HIV (HTLV-IIIB strain)) [ng/mL] | IC50 (HIV integrase) [nM] | melting point [°C]
1 | Cc1nc(-c2nnc(Cc3ccc(F)cc3)o2)c(O)c(=O)[nH]1 [Comparative example 1, reference compound] | 19000 (≈ 62.9 µM) | 92.6 | –
2 | CC(=O)N1CCC[C@H]1c1nc(-c2nnc(Cc3ccc(F)cc3)o2)c(O)c(=O)n1C [Compound I-2] | 38 (≈ 0.0919 µM) | 138 | 170 to 172
3 | CN(C(=O)c1ccccn1)C(C)(C)c1nc(-c2ncc(Cc3ccc(F)cc3)s2)c(O)c(=O)[nH]1 [Compound I-45] | 5.6 (≈ 0.0117 µM) | 12.1 | 245
4 | CCN1C(C)n2c(nc(-c3ncc(Cc4ccc(F)cc4)s3)c(O)c2=O)C1(C)C (centres unmarked) [Compound I-60] | 18 (≈ 0.0434 µM) | 15.9 | 165 to 168
